From PMC8333425, “Discovery of a dual Ras and ARF6 inhibitor from a GPCR endocytosis screen” (Nature Communications, 2021)
Values joined by “and” are separate entries in the source; they are usually repeats but may differ in a detail not shown here. Equal values may be shown once. “Also recorded” adds a separate entry of the source.

How the values were obtained:
[1] = test system: ERK1/2 activation by AT1R; assay: Western blot of AT1R-mediated ERK1/2 activation in Gαq/11 KO cells (with or without β-arrestin2); assay type: cell-based, human; conditions: for ERK1/2 activation by AT1R in cells lacking Gαq/11, supplemented or not with β-arrestin: 50 μM
Method: HEK293SL cells (10^5 cells per well) were seeded in a poly-L-lysine-coated six-well plate and transiently transfected with 3 μg Flag-AT1R, HA-B2R or HA-β2AR and/or 500 ng Flag-MEK1-WT, Flag-MEK1-DD, Flag-BRAF-WT, Flag-BRAF-V600E, Flag-K-Ras-WT, Flag-K-Ras-G12V, HA-ARF6-WT, or HA-ARF6-T27N. Gαq/11 KO and βarr1/2 KO cells were seeded onto 100 mm dishes at a density of 10^6 cells per dish. Next day, cells were transfected with 3 μg AT1R alone or along with 500 ng of β-arrestin2 using PEI. After 18 h of transfection, cells were detached and re-seeded onto poly-L-lysine coated 12-well plates (~1.5–2 × 10^5cells/well) for subsequent experiments. Forty-eight hours post transfection, in a 37 °C water bath, cells were serum-starved for 30 min, pretreated with DMSO (0.1%) or compound 21/Rasarfin (50 µM or at indicated concentrations) for 30 min, then stimulated or not with the indicated ligand [AngII (1 µM), BK (1 µM), Iso (10 µM) or EGF (100 ng/ml)] at indicated times. Cells were put on ice, washed with PBS and solubilized in 2x laemmli buffer (250 mM Tris–HCl pH 6.8, 2% SDS (w/v), 10% glycerol (v/v), 0.01% bromophenol blue (w/v) and 5% β-mercaptoethanol (v/v)) by heating at 65 °C for 15 min. Lysates were resolved on 10 or 14% SDS-PAGE, transferred to nitrocellulose membranes and immunoblotted for p-ERK1/2, ERK1/2, p-Akt, Akt, HA, Myc, β-actin or FLAG. ImageLab 5.2 software was used to quantify the digital blots as fold of the phosphorylated protein over total protein, which were then normalized as indicated in the figure legends. Uncropped immunoblots are provided in the Source Data file.

A549 cells = assay: Cell proliferation assay (IncuCyte confluence), A549; assay type: cell-based, human; conditions: for cell confluence (proliferation) / proliferation (confluence): listed as Rasarfin
Method: Cell proliferation was measured by a label-free, non-invasive cellular confluence assay using IncuCyte Live-Cell Imaging Systems (Essen Bioscience, Ann Arbor, MI, USA). MDA-MB-231 breast cancer and A549 lung carcinomas cells (1500 cells in 150 μl/well) were seeded overnight on a clear 96-well plate. Twenty-four hours later, the cells were treated with 0.1% DMSO, or different concentrations of Rasarfin (as indicated), or 10 µM of 21.4 or 21.8 for 96 h total. The plate was placed in an XL-3 incubation chamber maintained at 37 °C and the cells were photographed using a ×4 objective, every 3 h for 4 days. Cell confluence was calculated using IncuCyte S3 software (2019A) and cell proliferation was expressed as an increase in the percentage of confluence. Experiments were done in triplicate and repeated three times.

[2] = Gq/11 KO cells + barr2, Time 0 min

For `CC(C)C(=O)N1CCN(c2ccc(NC(=O)c3cc4ccccc4o3)cc2Cl)CC1` [Compound 21], the “ERK1/2 activation by AT1R in cells lacking Gαq/11, supplemented or not with β-arrestin” value [1] was “efficiently inhibited ERK1/2 activation”, the “ERK1/2 activation by AT1R in cells lacking Gαq/11, supplemented or not with β-arrestin” value ([1]; listed as Rasarfin) was “totally blocked” and the “ERK1/2 activation relative to time 0 (S_Fig.4a)” value [1, 2] was 1. The “Predicted (LS) mean diff. DMSO - Comp 21 (Bonferroni's multiple comparisons test)” value (“Predicted (LS) mean diff. DMSO” below) [1, 2] was 0, the “Predicted (LS) mean diff. DMSO” value ([1]; Gq/11 KO cells + barr2, Time 5 min) was 5.112 and the “Predicted (LS) mean diff. DMSO” value ([1]; Gq/11 KO cells + barr2, Time 20 min) was 2.869. For the same molecule, the “ERK1/2 activation relative to time 0 (S_Fig.4a)” value ([1]; Gq/11 KO cells, Time 0 min) was 1, the “Mean Diff. DMSO - Comp 21 (Bonferroni's multiple comparisons test)” value ([1]; Gq/11 KO cells, Time 0 min) was 0 and the “Mean Diff. DMSO - Comp 21 (Bonferroni's multiple comparisons test)” value ([1]; Gq/11 KO cells, Time 5 min) was 14.92. The “ERK1/2 activation relative to time 0 (S_Fig.4a)” value ([1]; Gq/11 KO cells, Time 5 min, listed as Comp 21) was 0.6393 and 0.9475 and 0.8926 and 0.5297, the “Mean Diff. DMSO - Comp 21 (Bonferroni's multiple comparisons test)” value ([1]; Gq/11 KO cells, Time 20 min) was 7.116 and the “cell confluence (proliferation)” value (A549 cells; 0.5μM, 18 hr) was 9.332 and 9.3043 and 10.3515. For the same molecule, the “proliferation (confluence)” value (A549 cells; 0.5μM, 18 hr) was 24.4895 and 24.566 and 18.9209, the “cell confluence (proliferation)” value (A549 cells; 0.5μM, 21 hr) was 10.4726 and 10.4517 and 11.0087 and the “proliferation (confluence)” value (A549 cells; 0.5μM, 21 hr) was 27.1666 and 26.6886 and 21.2647. For the same molecule, the “cell confluence (proliferation)” value (A549 cells; 0.5μM, 24 hr) was 10.2389 and 10.6946 and 11.5243, the “proliferation (confluence)” value (A549 cells; 0.5μM, 24 hr) was 32.6256 and 30.048 and 24.569 and the “cell confluence (proliferation)” value (A549 cells; 0.5μM, 27 hr) was 10.805 and 11.0634 and 12.4799. For the same molecule, the “proliferation (confluence)” value (A549 cells; 0.5μM, 27 hr) was 37.2681 and 34.654 and 21.9145, the “cell confluence (proliferation)” value (A549 cells; 0.5μM, 30 hr) was 11.9152 and 12.485 and 12.9764 and the “proliferation (confluence)” value (A549 cells; 0.5μM, 30 hr) was 41.4109 and 39.7044 and 23.7331. The “cell confluence (proliferation)” value (A549 cells; 0.5μM, 33 hr) was 12.3634 and 12.541 and 13.8499, the “proliferation (confluence)” value (A549 cells; 0.5μM, 33 hr) was 46.0502 and 43.4249 and 28.4554 and the “proliferation (confluence)” value (A549 cells; 0.5μM, 36 hr) was 51.8492 and 49.6782 and 33.7864. For the same molecule, the “proliferation (confluence)” value (A549 cells; 0.5μM, 39 hr) was 59.4007 and 56.0507, the “cell confluence (proliferation)” value (A549 cells; 1μM, 18 hr) was 8.679 and 9.302 and 9.424 and the “proliferation (confluence)” value (A549 cells; 1μM, 18 hr) was 19.1081 and 18.3715 and 26.7974. For the same molecule, the “cell confluence (proliferation)” value (A549 cells; 1μM, 21 hr) was 9.1 and 10.4023 and 9.667, the “proliferation (confluence)” value (A549 cells; 1μM, 21 hr) was 21.9794 and 20.7173 and 31.1317 and the “cell confluence (proliferation)” value (A549 cells; 1μM, 24 hr) was 9.619 and 10.4616 and 10.6323. For the same molecule, the “proliferation (confluence)” value (A549 cells; 1μM, 24 hr) was 24.7962 and 23.1147 and 35.367, the “cell confluence (proliferation)” value (A549 cells; 1μM, 27 hr) was 10.2207 and 11.0837 and 11.4063 and the “proliferation (confluence)” value (A549 cells; 1μM, 27 hr) was 28.2759 and 21.7311 and 40.5461. The “cell confluence (proliferation)” value (A549 cells; 1μM, 30 hr) was 12.7027 and 12.0976 and 12.1684, the “proliferation (confluence)” value (A549 cells; 1μM, 30 hr) was 31.8721 and 23.9788 and 46.1337 and the “cell confluence (proliferation)” value (A549 cells; 1μM, 33 hr) was 12.8101 and 12.4309 and 12.7886. For the same molecule, the “proliferation (confluence)” value (A549 cells; 1μM, 33 hr) was 35.7112 and 29.1451 and 51.7711, the “cell confluence (proliferation)” value (A549 cells; 1μM, 36 hr) was 13.5305 and the “proliferation (confluence)” value (A549 cells; 1μM, 36 hr) was 39.6717 and 33.6517 and 60.1281. The “proliferation (confluence)” value (A549 cells; 1μM, 39 hr) was 47.4848 and 40.2179, the “cell confluence (proliferation)” value (A549 cells; 2μM, 18 hr) was 9.332 and 13.0386 and 10.4059 and the “proliferation (confluence)” value (A549 cells; 2μM, 18 hr) was 23.9116 and 20.6158 and 17.6553. The “cell confluence (proliferation)” value (A549 cells; 2μM, 21 hr) was 10.4726 and 14.2716 and 10.9627, the “proliferation (confluence)” value (A549 cells; 2μM, 21 hr) was 27.3499 and 22.7836 and 20.9361 and the “cell confluence (proliferation)” value (A549 cells; 2μM, 24 hr) was 10.2389 and 15.0053 and 11.5919. The “proliferation (confluence)” value (A549 cells; 2μM, 24 hr) was 32.3505 and 25.0274 and 22.3969, the “cell confluence (proliferation)” value (A549 cells; 2μM, 27 hr) was 10.805 and 15.8245 and 11.5779 and the “proliferation (confluence)” value (A549 cells; 2μM, 27 hr) was 36.576 and 29.0777 and 20.6023. For the same molecule, the “cell confluence (proliferation)” value (A549 cells; 2μM, 30 hr) was 11.9152 and 18.2698 and 12.1995, the “proliferation (confluence)” value (A549 cells; 2μM, 30 hr) was 40.8806 and 32.6797 and 23.0649 and the “cell confluence (proliferation)” value (A549 cells; 2μM, 33 hr) was 12.3634 and 18.789 and 13.0531. For the same molecule, the “proliferation (confluence)” value (A549 cells; 2μM, 33 hr) was 45.6439 and 35.4748 and 28.9537, the “cell confluence (proliferation)” value (A549 cells; 2μM, 36 hr) was 12.4389 and 19.3831 and 13.6426 and the “proliferation (confluence)” value (A549 cells; 2μM, 36 hr) was 52.1825 and 39.835 and 32.0484. For the same molecule, the “proliferation (confluence)” value (A549 cells; 2μM, 39 hr) was 61.5258 and 48.4257 and 38.4343, the “cell confluence (proliferation)” value (A549 cells; 5μM, 18 hr) was 10.0859 and 8.906 and 10.6663 and the “proliferation (confluence)” value (A549 cells; 5μM, 18 hr) was 17.9959 and 26.9316 and 16.8915. The “cell confluence (proliferation)” value (A549 cells; 5μM, 21 hr) was 10.2266 and 10.3015 and 11.0904, the “proliferation (confluence)” value (A549 cells; 5μM, 21 hr) was 19.5572 and 26.3286 and 18.8493 and the “cell confluence (proliferation)” value (A549 cells; 5μM, 24 hr) was 11.4115 and 9.856 and 11.3241. The “proliferation (confluence)” value (A549 cells; 5μM, 24 hr) was 21.409 and 27.1851 and 17.4154, the “cell confluence (proliferation)” value (A549 cells; 5μM, 27 hr) was 11.7245 and 10.4475 and 12.7275 and the “proliferation (confluence)” value (A549 cells; 5μM, 27 hr) was 22.045 and 28.0966 and 15.1402. For the same molecule, the “cell confluence (proliferation)” value (A549 cells; 5μM, 30 hr) was 12.7699 and 11.1958 and 12.4012, the “cell confluence (proliferation)” value (A549 cells; 5μM, 33 hr) was 12.6309 and 11.193 and 12.7637 and the “proliferation (confluence)” value (A549 cells; 5μM, 33 hr) was 25.4457 and 25.9951 and 18.0713. The “cell confluence (proliferation)” value (A549 cells; 5μM, 36 hr) was 13.1014 and 11.8184 and 13.4133, the “proliferation (confluence)” value (A549 cells; 5μM, 36 hr) was 26.9015 and 24.9434 and 20.5372 and the “proliferation (confluence)” value (A549 cells; 5μM, 39 hr) was 29.6606 and 26.9243 and 22.5988. The “cell confluence (proliferation)” value (A549 cells; 10μM, 18 hr) was 8.409 and 7.2062 and 9.084, the “proliferation (confluence)” value (A549 cells; 10μM, 18 hr) was 10.5387 and 14.905 and 7.973 and the “cell confluence (proliferation)” value (A549 cells; 10μM, 21 hr) was 8.837 and 8.143 and 9.362. The “proliferation (confluence)” value (A549 cells; 10μM, 21 hr) was 10.701 and 14.8102 and 7.904, the “cell confluence (proliferation)” value (A549 cells; 10μM, 24 hr) was 9.479 and 8.1046 and 9.485 and the “proliferation (confluence)” value (A549 cells; 10μM, 24 hr) was 11.1918 and 15.0497 and 7.616. The “cell confluence (proliferation)” value (A549 cells; 10μM, 27 hr) was 9.816 and 8.066 and 10.344, the “cell confluence (proliferation)” value (A549 cells; 10μM, 30 hr) was 10.3507 and 8.537 and 10.5983 and the “cell confluence (proliferation)” value (A549 cells; 10μM, 33 hr) was 10.1924 and 8.993 and 10.9238. The “cell confluence (proliferation)” value (A549 cells; 10μM, 36 hr) was 10.249 and 9.152 and 11.0645 and the “A549 cell growth (confluency)” value (A549 cells; 5 and 10 µM of Rasarfin) was “efficiently blocks proliferation; also recorded: efficient A549 cell growth inhibition”.
